Data from the NIST ThermoML archive (doi:10.1007/s10765-007-0346-0).

Assays:
[1] = xn = mol fraction of the nth substance listed; settings: 101 kPa, Liquid, Capillary tube (Ostwald / Ubbelohde) method
[2] = 101.33 kPa, Liquid, Capillary tube (Ostwald / Ubbelohde) method

CCCCCCC [heptane] + CC(C)OC(C)C
[1], x2 = 0
Settings | kinematic viscosity [m2/s]
283.15 K | 6.697e-07
298.15 K | 5.754e-07
313.15 K | 4.986e-07

CCCCCCC [heptane]
[2]
Settings | kinematic viscosity [m2/s]
283.15 K | 6.697e-07
298.15 K | 5.754e-07
313.15 K | 4.986e-07

COC(C)(C)C [2-methoxy-2-methylpropane] + CCC(C)CC
[1], x1 = 1
Settings | kinematic viscosity [m2/s]
283.15 K | 5.191e-07
298.15 K | 4.529e-07
313.15 K | 3.961e-07

CC(C)OC(C)C [diisopropyl ether] + CCCCCC
kinematic viscosity [m2/s], [1]
Settings | 283.15 K | 298.15 K | 313.15 K
x1 = 0.0523 | 5.094e-07 | 4.477e-07 | 4.011e-07
x1 = 0.0915 | 5.076e-07 | 4.467e-07 | 3.994e-07
x1 = 0.189 | 5.031e-07 | 4.446e-07 | 3.961e-07
x1 = 0.3016 | 4.99e-07 | 4.426e-07 | 3.929e-07
x1 = 0.398 | 4.963e-07 | 4.409e-07 | 3.907e-07
x1 = 0.4998 | 4.944e-07 | 4.397e-07 | 3.889e-07
x1 = 0.6007 | 4.931e-07 | 4.383e-07 | 3.874e-07
x1 = 0.6975 | 4.932e-07 | 4.381e-07 | 3.866e-07
x1 = 0.7976 | 4.934e-07 | 4.381e-07 | 3.859e-07
x1 = 0.8959 | 4.945e-07 | 4.386e-07 | 3.856e-07
x1 = 0.9432 | 4.953e-07 | 4.385e-07 | 3.86e-07

COC(C)(C)C [2-methoxy-2-methylpropane]
[2]
Settings | kinematic viscosity [m2/s]
283.15 K | 5.191e-07
298.15 K | 4.529e-07
313.15 K | 3.961e-07

CC(C)OC(C)C [diisopropyl ether] + CCCCCCC
kinematic viscosity [m2/s], [1]
Settings | 283.15 K | 298.15 K | 313.15 K
x1 = 0.0508 | 6.578e-07 | 5.658e-07 | 4.91e-07
x1 = 0.1002 | 6.473e-07 | 5.567e-07 | 4.831e-07
x1 = 0.1986 | 6.265e-07 | 5.387e-07 | 4.719e-07
x1 = 0.2973 | 6.068e-07 | 5.218e-07 | 4.61e-07
x1 = 0.3992 | 5.88e-07 | 5.055e-07 | 4.498e-07
x1 = 0.4991 | 5.693e-07 | 4.9e-07 | 4.385e-07
x1 = 0.5979 | 5.533e-07 | 4.779e-07 | 4.273e-07
x1 = 0.7009 | 5.372e-07 | 4.679e-07 | 4.166e-07
x1 = 0.8008 | 5.215e-07 | 4.588e-07 | 4.058e-07
x1 = 0.8954 | 5.091e-07 | 4.496e-07 | 3.96e-07
x1 = 0.95 | 5.016e-07 | 4.443e-07 | 3.909e-07

COC(C)(C)C [2-methoxy-2-methylpropane] + CCCCCCC
kinematic viscosity [m2/s], [1]
Settings | 283.15 K | 298.15 K | 313.15 K
x1 = 0.0431 | 6.606e-07 | 5.683e-07 | 4.926e-07
x1 = 0.0987 | 6.512e-07 | 5.599e-07 | 4.862e-07
x1 = 0.1892 | 6.353e-07 | 5.461e-07 | 4.767e-07
x1 = 0.2958 | 6.168e-07 | 5.3e-07 | 4.658e-07
x1 = 0.3844 | 6.03e-07 | 5.169e-07 | 4.569e-07
x1 = 0.4986 | 5.845e-07 | 5.012e-07 | 4.454e-07
x1 = 0.6007 | 5.7e-07 | 4.881e-07 | 4.347e-07
x1 = 0.6999 | 5.567e-07 | 4.777e-07 | 4.246e-07
x1 = 0.7998 | 5.421e-07 | 4.68e-07 | 4.144e-07
x1 = 0.8997 | 5.298e-07 | 4.604e-07 | 4.047e-07
x1 = 0.9499 | 5.241e-07 | 4.566e-07 | 4.004e-07

CCCCCC [hexane] + CC(C)OC(C)C
[1], x2 = 0
Settings | kinematic viscosity [m2/s]
283.15 K | 5.125e-07
298.15 K | 4.493e-07
313.15 K | 4.039e-07

CCCCCC [hexane]
[2]
Settings | kinematic viscosity [m2/s]
283.15 K | 5.125e-07
298.15 K | 4.493e-07
313.15 K | 4.039e-07

CCC(C)CC [3-methylpentane]
[2]
Settings | kinematic viscosity [m2/s]
283.15 K | 4.928e-07
298.15 K | 4.366e-07
313.15 K | 3.881e-07
